Data published in patent US12391683B2, “Therapeutic compounds and methods” (Actio Biosciences, Inc., priority 2022, dated 2025).

Biological target: T1, TRPV6 channels (Homo sapiens, UniProt Q9H1D0)
T1 construct: expressed in transfected cells; host or cells: HEK293
T1 sequence (Q9H1D0 1-765): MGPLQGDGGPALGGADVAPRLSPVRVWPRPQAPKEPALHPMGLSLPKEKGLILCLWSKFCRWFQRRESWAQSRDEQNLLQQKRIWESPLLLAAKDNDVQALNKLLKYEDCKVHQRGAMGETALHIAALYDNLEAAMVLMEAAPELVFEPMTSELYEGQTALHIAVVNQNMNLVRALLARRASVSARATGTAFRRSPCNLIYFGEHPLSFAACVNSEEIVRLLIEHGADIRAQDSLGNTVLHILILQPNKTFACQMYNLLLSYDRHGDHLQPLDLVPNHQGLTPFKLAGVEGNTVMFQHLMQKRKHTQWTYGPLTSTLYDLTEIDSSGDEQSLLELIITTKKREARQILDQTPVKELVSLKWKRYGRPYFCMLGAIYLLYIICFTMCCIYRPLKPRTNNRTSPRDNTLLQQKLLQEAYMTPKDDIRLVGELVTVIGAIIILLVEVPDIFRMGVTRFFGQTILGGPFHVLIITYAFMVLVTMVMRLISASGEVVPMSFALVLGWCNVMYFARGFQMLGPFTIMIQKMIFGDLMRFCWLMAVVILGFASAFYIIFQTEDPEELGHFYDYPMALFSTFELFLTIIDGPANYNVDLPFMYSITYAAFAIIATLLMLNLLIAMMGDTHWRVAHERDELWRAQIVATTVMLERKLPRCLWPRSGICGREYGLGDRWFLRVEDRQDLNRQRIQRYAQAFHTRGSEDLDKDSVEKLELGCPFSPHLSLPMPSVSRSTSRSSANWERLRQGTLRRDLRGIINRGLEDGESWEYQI
Assay: TRP Family FLIPR Assay, TRPV6
Assay type: cell-based
Conditions: antagonist mode; activated with 0.9 mM calcium ion; HEK293 cells; 0.003-10 μM; read-out: IC50 hTRPV6
Method: The compound of Example 5 was tested for selectivity against a panel of Human TRP family ion channels in a TRP Family FLIPR Assay as described below. • 1. TRPC3 channels (human TRPC3 variant 1 gene, expressed in HEK293 cells). • 2. TRPC4 channels (human TRPC4 gene, expressed in HEK293 cells). • 3. TRPC5 channels (human TRPC5 gene, expressed in HEK293 cells). • 4. TRPC6 channels (human TRPC6 gene, expressed in HEK293 cells). • 5. TRPM2 channels (human TRPM2 gene, transiently expressed in HEK293 cells). • 6. TRPM3 channels (human TRPM3 gene, transiently expressed in HEK293 cells). • 7. TRPM4 channels (human TRPM4 gene, expressed in CHO cells). • 8. […]
Data acquisition was performed via the FLIPR Control software supplied with the FLIPR System (MDS-AT) and data was analyzed using Microsoft Excel (Microsoft Corp., Redmond, WA) or GraphPad Prism. […]
[formula] where Base is the response at low concentrations of test article, Max is the maximum response at high concentrations, xhalf the EC50, or IC50, the concentration of test article producing either half-maximal activation or inhibition, and rate is the Hill coefficient. […] No assumptions about the fit parameters was made; the fit parameters were determined by the algorithm.
The effect of each test article was evaluated at eight (8) concentrations: 0.003, 0.01, 0.03, 0.1, 0.3, 1, 3 and 10 μM, n≤4 wells/concentration). […]

**Q.** With `CC(C)(O)c1cnc(N2C[C@@]3(CC[C@@H](F)[C@](C)(Cn4cnc5ccc(C#N)cc54)C3)OC2=O)cn1` (single isomer, unassigned) [Example 5] as the molecule, how does the IC50 read?
**A.** Its IC50 is > 10 µM.
